The values that follow come from US10213415B2, “Compounds as opioid receptor modulators” (JANSSEN PHARMACEUTICA NV, priority 2004, dated 2019).

Assay [1] has as its target T1, delta opioid receptor (NG108-15 cell membranes) (Mus musculus, UniProt P32300).
T1 construct: NG108-15 cell membranes were purchased from Applied Cell Sciences (Rockville, Md.); host or cells: NG108-15 cells (membranes purchased)
The experiment in a line: Delta Opioid Receptor Functional Assay: [35S]GTPγS Binding in NG108-15 Cell Membranes, Version 2. It is filed as biochemical. Particulars: NG108-15 cell membranes, version 2. Put shortly: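 SPA-coupled NG108-15 membranes (37.5 μg/ml) were incubated with 0.1 nM [35S]GTPγS and 100 μM GDP in Tris pH 7.6, 5 mM MgCl2, 100 mM NaCl, with increasing agonist concentrations; 10 μM unlabeled GTPγS defined nonspecific binding. EC50 from % of basal; inhibition as % of 1 μM SNC80 stimulation.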

Assay [2] has as its system male CD-1 mice. In words: In Vivo Assay: Upper GI Tract Transit (MUGIT). Particulars: Mus musculus, po, 1 h, p.o., read-out: upper GI transit (% ctrl). As for the experimental part: Methods: The animals used in these studies were male CD-1 mice, ave. wt. ˜30 g. Mice were housed under 12 h/12 h light/dark cycle, food & water ad lib. On the day of the experiment mice were assigned to experimental groups, including one vehicle-only group (=control). At 30 min before administration of carmine dye, animals were dosed with vehicle or vehicle-plus-compound, mice were returned to their home cages after drug administration. After administration of carmine, the animals were either returned to their home cages (non-stressed) or individually placed in the same metal cages as used in the fecal output or entire GI tract transit to induce a novel environment stress. One hour after administration of carmine, mice were sacrificed by cervical dislocation, the abdomen opened midventrally, the small intestine from pylorus to cecum was removed, the mesentery divided in order to lay the intestine straight & flat—without stretching. The total length of intestine and the length of carmine-dyed intestine were measured in order to determine the percent of the upper GI tract over which transit had occurred as follows: {(Length of carmine-dyed intestine)/(Total length of intestine)}×100=% upper GI transit. The data expressed were group means±SD (or s.e.m.) and data expressed as % of control.

For assay [3], the target named is T2, human delta subtype 2 opioid receptor (Homo sapiens, UniProt P41143).
T2 construct: purchased Perkin Elmer RBHODM400UA; host or cells: Chinese Hamster Ovary cells (recombinant expression)
In words: Human Delta Opioid Receptor Binding Assay (CHO membranes, 3H-Naltrindole). The settings on record: read-out: hKi δ. Put shortly:
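Compound displacement of tritiated naltrindole (6 nM working dilution) measured by scintillation counting after GF/C filtration. Receptor source: recombinant CHO membranes; buffer 50 mM Tris, 5 mM MgCl2, pH 7.5; 30 min room-temperature incubation. 1 μM cold naltrindole sets nonspecific binding.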

Assay [4] deals with male CD-1 mice. The experiment in a line: In Vivo Assay: Stress-Induced Entire GI Tract Transit (MEGIT, MEGIT-NES, MEGIT-RS). The arrangement: species or system mouse. Particulars: acclimated mice. As for the experimental part:
Methods: The animals used in these studies are male CD-1 mice, ave. wt. ˜30 g. Procedure: Mice were housed in LAM under 12 h/12 h light/dark cycle, food & water ad lib. On the day before the experiments, the mice assigned to the “acclimated” (non-stressed) control group were placed into individual wire mesh-bottomed cages, provided food and water ad lib. The acclimated control group was in this new environment for 16-18 hrs prior to beginning the test. On the day of the experiment, mice assigned to experimental groups were housed in home cages were transported to procedure room and remain in their home cages until the start of the transit portion of the study. […] After the carmine marker was administered each mouse was placed in the novel environment cage. One hour after administration of carmine, the fecal pellet output of each animal was recorded. At one-hour intervals thereafter the fecal pellets were examined for the presence of carmine-dye. The number of mice that excreted a carmine-containing fecal pellet at the end of each hour post carmine administration was recorded, until all mice had excreted carmine in a fecal pellet or the end of 6 hrs post carmine administration, whichever occurred first. A variant of this novel environment stress (NES) paradigm is to use the same procedures of dye and compound administrations, but to use restraint (confinement in a small plastic tube for 3 hr) as a stressor (RS=restraint stress), followed by two hours in an individual cage (total of 5 hr fecal transit time). […] The mouse entire GI tract (MEGIT) transit test can thus be done in mice that are all acclimated (non-stressed), in which case the data are expressed as % control (vehicle only), or in mice that are exposed to NES or RS, in which cases the data are expressed as % of the vehicle treated NES or RS group.

T1 sequence (P32300 whole entry): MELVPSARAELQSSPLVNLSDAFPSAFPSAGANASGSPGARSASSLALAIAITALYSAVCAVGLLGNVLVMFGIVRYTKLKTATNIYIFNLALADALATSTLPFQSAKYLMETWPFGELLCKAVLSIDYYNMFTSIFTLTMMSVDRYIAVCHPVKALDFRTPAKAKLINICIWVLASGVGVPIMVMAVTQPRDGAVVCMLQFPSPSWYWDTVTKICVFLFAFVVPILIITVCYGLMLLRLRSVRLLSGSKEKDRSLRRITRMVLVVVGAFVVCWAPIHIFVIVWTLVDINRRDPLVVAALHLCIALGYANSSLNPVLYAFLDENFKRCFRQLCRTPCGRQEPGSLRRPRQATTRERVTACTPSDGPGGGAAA
T2 sequence (P41143 whole entry): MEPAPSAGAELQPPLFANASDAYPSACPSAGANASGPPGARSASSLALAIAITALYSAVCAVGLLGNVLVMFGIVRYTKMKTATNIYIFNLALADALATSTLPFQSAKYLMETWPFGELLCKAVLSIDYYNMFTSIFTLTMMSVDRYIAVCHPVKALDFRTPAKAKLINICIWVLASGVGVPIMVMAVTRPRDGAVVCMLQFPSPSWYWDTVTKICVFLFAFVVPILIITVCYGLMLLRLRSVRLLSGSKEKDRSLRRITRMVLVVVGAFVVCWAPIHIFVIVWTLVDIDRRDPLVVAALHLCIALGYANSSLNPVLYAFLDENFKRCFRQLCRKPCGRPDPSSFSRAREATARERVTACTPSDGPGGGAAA

The EC50 is the concentration giving half of the maximal effect. For `COc1ccc(CN(C(=O)[C@@H](N)Cc2c(C)cc(C(N)=O)cc2C)[C@@H](C)c2nc(-c3ccccc3)c[nH]2)cc1OC` [Cpd 75], in assay [1] ([35S]GTPγS, read-out: DOR GTP-binding Assay_v2_ EC50), the EC50 was determined as 1.4 nM. For the same compound, in assay [1] (% inhibition of agonist-stimulated GTPγS binding), the “DOR GTP-binding Assay v2 (% I)” value came to 65.35%. Further, the response vs control in vivo at 30 mg in the assay on male CD-1 mice [2] (dose 30 (mg)) is 71.1%. Moreover, the response vs control in vivo at 60 mg with male CD-1 mice [2] (dose 60 (mg)) came out at 56%. Moreover, in the assay on male CD-1 mice [2] (dose 100 (mg)), the response vs control in vivo at 100 mg turned out to be 45.6%. Moreover, in assay [3], the Ki was determined as 8.5 nM. For the same compound, the “MEGIT entire GI transit 6 hr % ctrl” value with male CD-1 mice [4] (dose 30 p.o.) is recorded as 125 % ctrl; in the assay with male CD-1 mice [4] (dose 60 p.o.) it was 0 % ctrl; in the assay on male CD-1 mice [4] (dose 100 p.o.), 0 % ctrl.
